≈ marks a conversion by molar mass, not a printed value.
Assays:
[1] = system: MRSE CAN-ICU 61589; type: cell-based, methicillin-resistant S. epidermidis; conditions: CAN-ICU 61589, Mueller-Hinton broth, 24 hr, 37°C, without replication; for MIC MRSE in the presence of 4% bovine serum albumin: 4% BSA added, macrobroth dilution; for MIC MRSE: CLSI macrobroth dilution, 5 x 10^5 CFU/mL
Procedure, shortened: (§1)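 CLSI macrobroth dilution with doubling dilutions in cation-adjusted Mueller-Hinton broth in glass tubes, inoculum about 5 × 10^5 CFU/mL. Incubation 24 hr at 37°C in ambient air before MIC reading. Single determinations, no replication.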

[2] = system: A. baumannii CAN-ICU 63169; type: cell-based, Acinetobacter baumannii; conditions: CAN-ICU 63169, Mueller-Hinton broth, 24 hr, 37°C, without replication; for MIC A. baumannii in the presence of 4% bovine serum albumin: 4% BSA added, macrobroth dilution; for MIC A. baumannii: CLSI macrobroth dilution, 5 x 10^5 CFU/mL
Procedure, shortened: as §1

[3] = system: Gram negative bacteria; assay: MIC with 4% BSA, summary over Gram negative strains; type: cell-based; conditions: 4% BSA added
Experimental: Antimicrobial activity of the purified lipopeptoids was determined without replication against a panel of clinically relevant and standard reference bacterial strains according to CLSI macrobroth standards. Stock solutions at 512 µg/mL were prepared in water, with DMSO as needed, and testing was performed in glass test tubes using Muller-Hinton broth and bacteria adjusted to 5 × 10^5 CFU/mL. Bacteria were incubated with the lipopeptoid of interest for 24 hr at 37°C prior to reading. […]
After subculturing the relevant bacteria twice from frozen stock, in vitro activities of the antimicrobials were determined by macrobroth dilution methodology in accordance with the Clinical and Laboratory Standards Institute (CLSI) guidelines (3). The MICs were determined using glass test tubes (2 mL/tube) containing doubling antimicrobial dilutions of cation adjusted Mueller-Hinton broth inoculated to achieve a final concentration of approximately 5 x 10^5 CFU/mL, incubated in ambient air for 24 hr prior to reading. […]

[4] = system: S.pneumoniae ATCC 49619; type: cell-based, Streptococcus pneumoniae; conditions: ATCC 49619, Mueller-Hinton broth, 24 hr, 37°C, without replication; for MIC S.pneumoniae in the presence of 4% bovine serum albumin: 4% BSA added, macrobroth dilution; for MIC S.pneumoniae: CLSI macrobroth dilution, 5 x 10^5 CFU/mL
Procedure, shortened: as §1

| SMILES | MIC MRSE in the presence of 4% bovine serum albumin [1] [µg/mL] | MIC MRSE [1] [µg/mL] | MIC A. baumannii in the presence of 4% bovine serum albumin [2] [µg/mL] | MIC A. baumannii [2] [µg/mL] | MIC against Gram negative bacteria with 4% BSA [3] [µg/mL] | MIC S.pneumoniae in the presence of 4% bovine serum albumin [4] [µg/mL] | MIC S.pneumoniae [4] [µg/mL] |
| --- | --- | --- | --- | --- | --- | --- | --- |
| CCCCCCCCCCCCCCCC[N+](C)(C)C.[Cl-] [CTAC, Cetyltrimethylammonium chloride, reference compound] | 128 | 2 | 512 | 32 | ≥ 512 | 8 | 2 |
| NCCCCN(CC(N)=O)C(=O)CNC(=O)CN(CCCCN)C(=O)CCC(F)(F)C(F)(F)C(F)(F)C(F)(F)C(F)(F)C(F)(F)C(F)(F)C(F)(F)F [F11-NlysGNlys] | 256 | 32 (≈ 39.8 µM) | >512 | >512 |  | 512 | 256 (≈ 318 µM) |
| NCCCCN(CC(N)=O)C(=O)CN(CCCCN)C(=O)CN(CCCCN)C(=O)CCC(F)(F)C(F)(F)C(F)(F)C(F)(F)C(F)(F)C(F)(F)C(F)(F)C(F)(F)F [F11-NlysNlysNlys] | 256 | 32 (≈ 36.5 µM) | >512 | >512 |  | 512 | 128 (≈ 146 µM) |
